Patent US12448383B2, “Compounds and methods for treatment of viral infections” (priority 2022, dated 2025)

Key:
[1] = test system: SARS Coronavirus 2 recombinant with NanoLuc (SARS-CoV2-NLuc) in A549-hACE2 cells; experiment: organism not typed; assay type: cell-based; conditions: 48 h; read-out: SARS-CoV2 EC50
Plasma stability = assay type: in vitro ADME; set-up: unit not given here; conditions: 37° C., 2 μM substrate
How it was run: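 LC-MS (Q-Exactive, 5 ppm tolerance, 0.1% formic acid water/acetonitrile gradient) quantified compound in quenched aliquots. Aliquots were taken at 0.05, 0.5, 1, 2, 3 and 4 hr and quenched with internal-standard solution, and supernatants were diluted with water after centrifugation.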

[2] = test system: Respiratory syncytial virus recombinant with luciferase (RSV-Luc5) in HEp-2 cells; experiment: microbe, parasite or virus in culture; assay type: cell-based; conditions: human respiratory syncytial virus, HEp-2, 72 h, read-out: RSV Hep2 EC50
[3] = test system: Caco-2 cells (clone C2BBe1); experiment: CACO-2 permeability; assay type: in vitro ADME; set-up: unit not given here; conditions: for DM Caco2 A to B: apical to basolateral, donor pH 6.5, receiver pH 7.4; for DM Caco2 B to A: basolateral to apical
How it was run: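 A-to-B and B-to-A flux measured by LC-MS/MS from receiver samples taken at 1 and 2 h, with donor sampled at 0 and 2 h and recovery checked. Buffers: pH 6.5 HBSS with 200 μM BNPP on the donor side, pH 7.4 with BSA on the receiver side. Monolayers were 21-day cultures, TEER-verified, in duplicate wells.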

[4] = CC50 MT4 cytotoxicity (Cell-Titer Glo); assay type: cell-based; conditions: human
How it was run: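 CC50 values are the concentrations cutting viability by 50%, fitted by non-linear regression against untreated (100%) and 2 μM puromycin (0%) controls. Cell-Titer Glo luminescence measured after 4-5 days at 37° C exposure of uninfected MT-4 and HEp-2 cells to 3-fold dilutions spanning 15 nM to 100,000 nM.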

[5] = GI S9 stability - no PMSF; assay type: in vitro ADME; conditions: pH 7.4; human intestinal S9, PMSF-free; read-out: GIS9-HUMAN-NoPMSF T1/2
How it was run: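 Stability was assessed by Q-Exactive LC-MS peak area ratios against internal standard, tracking loss of parent and appearance of nucleoside metabolite Reference Compound A. Incubations used 2 μM compound in 1 mg/mL intestinal S9 without PMSF (PBS, pH 7.4), with six samples taken over 120 min.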

[6] = test system: Respiratory syncytial virus recombinant with luciferase (RSV-Luc5) in Normal Human Bronchial Epithelial (NHBE) cells; experiment: microbe, parasite or virus in culture; assay type: cell-based; conditions: 72 h, read-out: RSV NHBE EC50

SMILES | EC50 [1] | STA Human Plasma 37 (Plasma stability) | EC50 [2] | DM Caco2 A to B [3] | DM Caco2 B to A [3] | CC50 [4] | half-life at 2 µM [5] | EC50 [6]
N#C[C@@]1(c2ccc3c(N)ncnn23)O[C@H](COC(=O)OCC23CCC(CC2)C3)[C@@H](O)[C@H]1O [Compound 52, ((2R,3S,4R,5R)-5-(4-aminopyrrolo[2,1-f][1,2,4]triazin-7-yl)-5-cyano-3,4-dihydroxytetrahydrofuran-2-yl)methyl (bicyclo[2.2.1]heptan-1-ylmethyl) carbonate] | 0.574 µM | 85 | 0.1 µM | 6.95 | 13.04 | 38.8 µM | 0.655 min | 0.919 µM
N#C[C@@]1(c2ccc3c(N)ncnn23)O[C@H](COC(=O)OCC2CCC2)[C@@H](O)[C@H]1O [Compound 53, ((2R,3S,4R,5R)-5-(4-aminopyrrolo[2,1-f][1,2,4]triazin-7-yl)-5-cyano-3,4-dihydroxytetrahydrofuran-2-yl)methyl (cyclobutylmethyl) carbonate] | 0.662 µM | 13 | 0.098 µM | 2.34 | 10.58 | > 50 µM | 0.636 min | 0.833 µM
CC1(OC(=O)OC[C@H]2O[C@@](C#N)(c3ccc4c(N)ncnn34)[C@H](O)[C@@H]2O)CCCC1 [Compound 56, ((2R,3S,4R,5R)-5-(4-aminopyrrolo[2,1-f][1,2,4]triazin-7-yl)-5-cyano-3,4-dihydroxytetrahydrofuran-2-yl)methyl (1-methylcyclopentyl) carbonate] | 2.52 µM | 77.644 | 1.26 µM | 0.35 | 1.83 | > 50 µM | 16.5 min | 1.21 µM
CCC(C)(CC)OC(=O)OC[C@H]1O[C@@](C#N)(c2ccc3c(N)ncnn23)[C@H](O)[C@@H]1O [Compound 69, ((2R,3S,4R,5R)-5-(4-aminopyrrolo[2,1-f][1,2,4]triazin-7-yl)-5-cyano-3,4-dihydroaytetrahydrofuran-2-yl)methyl (3-methylpentan-3-yl) carbonate] | 2.83 µM | 294.49 | 1.05 µM | 1 | 4.74 | > 50 µM | 48.7 min | 0.988 µM
CCC(C)(C)OC(=O)OC[C@H]1O[C@@](C#N)(c2ccc3c(N)ncnn23)[C@H](O)[C@@H]1O [Compound 70, ((2R,3S,4R,5R)-5-(4-aminopyrrolo[2,1-f][1,2,4]triazin-7-yl)-5-cyano-3,4-dihydroxytetrahydrofuran-2-yl)methyl tert-pentyl carbonate] | 2.81 µM | 1399.3 | 1.72 µM | 0.88 | 6.91 | > 50 µM | 73 min | 2.18 µM
CC1(C)C2CCC1(C)C(OC(=O)OC[C@H]1O[C@@](C#N)(c3ccc4c(N)ncnn34)[C@H](O)[C@@H]1O)C2 (stereo partly drawn) [Compound 71, ((2R,3S,4R,5R)-5-(4-aminopyrrolo[2,1-f][1,2,4]triazin-7-yl)-5-cyano-3,4-dihydroxytetrahydrofuran-2-yl)methyl (1,7,7-trimethylbicyclo[2.2.1]heptan-2-yl) carbonate] | 7.82 µM | 1584 | 3.01 µM | 4.02 | 13.65 | 47.8 µM | 25.8 min | 0.531 µM
N#C[C@@]1(c2ccc3c(N)ncnn23)O[C@H](COC(=O)OCC23CC(C2)C3)[C@@H](O)[C@H]1O [Compound 72, ((2R,3S,4R,5R)-5-(4-aminopyrrolo[2,1-f][1,2,4]triazin-7-yl)-5-cyano-3,4-dihydroxytetrahydrofuran-2-yl)methyl (bicyclo[1.1.1]pentan-1-ylmethyl) carbonate] | 1.13 µM | 31.1 | 0.779 µM | 2.52 | 10.69 | > 50 µM | 0.623 min | 1.82 µM
N#C[C@@]1(c2ccc3c(N)ncnn23)O[C@H](COC(=O)OC2CC(F)(F)C2)[C@@H](O)[C@H]1O [Compound 73, ((2R,3S,4R,5R)-5-(4-aminopyrrolo[2,1-f][1,2,4]triazin-7-yl)-5-cyano-3,4-dihydroxytetrahydrofuran-2-yl)methyl (3,3-difluorocyclobutyl) carbonate] | 1.9 µM | 70 | 0.206 µM | 0.48 | 4.69 | > 50 µM | 0.588 min | 1.1 µM
N#C[C@@]1(c2ccc3c(N)ncnn23)O[C@H](COC(=O)OC2CCC(F)(F)CC2)[C@@H](O)[C@H]1O [Compound 84, ((2R,3S,4R,5R)-5-(4-aminopyrrolo[2,1-f][1,2,4]triazin-7-yl)-5-cyano-3,4-dihydroxytetrahydrofuran-2-yl)methyl (4,4-difluorocyclohexyl) carbonate] | 1.54 µM | 327.2 | 0.311 µM | 0.27 | 6.99 | > 50 µM | 0.955 min | 0.205 µM
C[C@@H](OC(=O)OC[C@H]1O[C@@](C#N)(c2ccc3c(N)ncnn23)[C@H](O)[C@@H]1O)c1ccccc1 [Compound 87, ((2R,3S,4R,5R)-5-(4-aminopyrrolo[2,1-f][1,2,4]triazin-7-yl)-5-cyano-3,4-dihydroxytetrahydrofuran-2-yl)methyl ((R)-1-phenylethyl) carbonate] | 1.05 µM | 28.7 | 0.345 µM | 1.79 | 10.98 | > 50 µM | 1.25 min | 0.559 µM
C[C@H](OC(=O)OC[C@H]1O[C@@](C#N)(c2ccc3c(N)ncnn23)[C@H](O)[C@@H]1O)c1ccccc1 [Compound 88, ((2R,3S,4R,5R)-5-(4-aminopyrrolo[2,1-f][1,2,4]triazin-7-yl)-5-cyano-3,4-dihydroxytetrahydrofuran-2-yl)methyl ((S)-1-phenylethyl) carbonate] | 1.63 µM | 1584 | 0.382 µM | 2.72 | 12.82 | > 50 µM | 4.91 min | 0.0702 µM
CC[C@H](C)OC(=O)OC[C@H]1O[C@@](C#N)(c2ccc3c(N)ncnn23)[C@H](O)[C@@H]1O [Compound 90, ((2R,3S,4R,5R)-5-(4-aminopyrrolo[2,1-f][1,2,4]triazin-7-yl)-5-cyano-3,4-dihydroxytetrahydrofuran-2-yl)methyl ((S)-sec-butyl) carbonate] | 1.84 µM | 169.9 | 0.249 µM | 0.9 | 7.41 | > 50 µM | 0.591 min | 0.18 µM
N#C[C@@]1(c2ccc3c(N)ncnn23)O[C@H](COC(=O)OCc2ncccn2)[C@@H](O)[C@H]1O [Compound 91, ((2R,3S,4R,5R)-5-(4-aminopyrrolo[2,1-f][1,2,4]triazin-7-yl)-5-cyano-3,4-dihydroxytetrahydrofuran-2-yl)methyl (pyrimidin-2-ylmethyl) carbonate] | 14.7 µM | 285 | 3.64 µM | 0.02 | 0.5 | > 50 µM | 42 min | 5.84 µM
N#C[C@@]1(c2ccc3c(N)ncnn23)O[C@H](COC(=O)OCCN2CCOCC2)[C@@H](O)[C@H]1O [Compound 92, ((2R,3S,4R,5R)-5-(4-aminopyrrolo[2,1-f][1,2,4]triazin-7-yl)-5-cyano-3,4-dihydroxytetrahydrofuran-2-yl)methyl (2-morpholinoethyl) carbonate] | 5.63 µM | 139.9 | 1.8 µM | 0.07 | 0.48 | > 50 µM | 238 min | 3.04 µM
N#C[C@@]1(c2ccc3c(N)ncnn23)O[C@H](COC(=O)OC(CF)CF)[C@@H](O)[C@H]1O [Compound 94, ((2R,3S,4R,5R)-5-(4-aminopyrrolo[2,1-f][1,2,4]triazin-7-yl)-5-cyano-3,4-dihydroxytetrahydrofuran-2-yl)methyl (1,3-difluoropropan-2-yl) carbonate] | 3.63 µM | 105.4 | 1.02 µM | 0.13 | 2.19 | > 50 µM | 1.13 min | 0.923 µM
